Measured values published in patent publication US8440724B2, “Inhibiting neurotransmitter reuptake” (Mayo Foundation for Medical Education and Research, priority 2008, dated 2013).

Columns and labels:
[1] = target: T1, human dopamine transporter (hDAT) (Homo sapiens, UniProt Q01959); assay: Radioligand binding to cloned hDAT, [3H]WIN35428, HEK-293 cell membranes; settings: Geometric Mean ± SEM; HCl salts; read-out: Equilibrium Dissociation Constant (KD) for Transporter Binding, hDAT (D)
T1 construct: expressed in transfected cells; host or cells: HEK-293, stably transfected
T1 sequence (Q01959 whole entry): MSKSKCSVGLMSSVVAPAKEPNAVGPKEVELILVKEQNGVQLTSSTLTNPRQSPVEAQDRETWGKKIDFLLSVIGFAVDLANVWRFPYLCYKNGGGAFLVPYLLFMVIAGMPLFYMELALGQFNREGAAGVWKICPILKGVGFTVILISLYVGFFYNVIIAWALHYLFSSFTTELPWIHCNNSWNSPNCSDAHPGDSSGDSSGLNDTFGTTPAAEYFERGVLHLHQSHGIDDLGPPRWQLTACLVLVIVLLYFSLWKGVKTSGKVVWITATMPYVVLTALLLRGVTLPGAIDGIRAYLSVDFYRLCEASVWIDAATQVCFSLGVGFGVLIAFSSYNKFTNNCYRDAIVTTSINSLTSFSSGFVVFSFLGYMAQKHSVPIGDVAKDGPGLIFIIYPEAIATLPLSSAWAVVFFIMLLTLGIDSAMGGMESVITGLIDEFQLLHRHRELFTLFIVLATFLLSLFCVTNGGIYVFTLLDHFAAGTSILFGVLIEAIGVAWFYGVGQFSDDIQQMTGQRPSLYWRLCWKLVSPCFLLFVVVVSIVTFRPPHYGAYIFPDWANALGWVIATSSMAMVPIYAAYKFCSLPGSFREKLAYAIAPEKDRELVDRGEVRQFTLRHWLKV

[2] = tested on: human serotonin, norepinephrine and dopamine transporters; assay: Transport into cells expressing human transporters: rank order of potency, comparison with rat; assay type: cell-based; settings: from Ki values; S = 5-HT, N = NE, D = DA
[3] = target: T2, rat dopamine transporter, synaptosomal preparations (Rattus norvegicus, UniProt P23977); assay: Inhibition of [3H]DA reuptake in rat brain synaptosomes (striatum); assay type: biochemical; settings: Geometric Mean ± SEM; rat brain synaptosomes; read-out: Inhibitor Constant (Ki), DA transport
T2 construct: and striatal tissues for transport of dopamine; from tissue; host or cells: rat striatum synaptosomes (male Sprague-Dawley)
T2 sequence (P23977 whole entry): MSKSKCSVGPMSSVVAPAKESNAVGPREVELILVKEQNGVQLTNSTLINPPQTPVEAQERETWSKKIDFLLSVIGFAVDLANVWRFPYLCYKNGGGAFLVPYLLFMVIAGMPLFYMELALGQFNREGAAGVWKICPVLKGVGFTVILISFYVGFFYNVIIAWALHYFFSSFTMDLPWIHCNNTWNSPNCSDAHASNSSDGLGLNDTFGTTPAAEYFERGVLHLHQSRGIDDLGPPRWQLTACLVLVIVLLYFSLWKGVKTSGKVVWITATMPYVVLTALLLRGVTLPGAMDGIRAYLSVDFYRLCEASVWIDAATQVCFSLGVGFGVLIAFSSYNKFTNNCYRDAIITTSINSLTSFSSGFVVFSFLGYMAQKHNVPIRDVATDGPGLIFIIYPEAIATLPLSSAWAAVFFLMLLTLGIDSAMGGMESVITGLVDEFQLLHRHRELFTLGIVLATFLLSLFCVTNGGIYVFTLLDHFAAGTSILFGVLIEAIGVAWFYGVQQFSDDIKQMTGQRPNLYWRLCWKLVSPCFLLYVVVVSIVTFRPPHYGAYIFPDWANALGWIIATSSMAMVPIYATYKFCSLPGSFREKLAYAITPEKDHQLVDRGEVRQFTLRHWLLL
Description: (§1) The dissected tissues were separately homogenized in 20 volumes (cortical) or 40 volumes (striatal) of ice-cold, oxygenated HEPES buffer 0.32 M sucrose containing 11 mM glucose (pH 7.4) in a glass Potter-Elvehjem homogenizer with Teflon® pestle (8 strokes, 900 rpm). The homogenates were centrifuged at 1,000×g for 10 minutes. The resulting supernatant was decanted and further centrifuged at 20,000×g for 20 minutes at 4° C. […] The synaptosomal protein concentration was determined by using the BCA assay (Pierce Biotechnology Inc, Rockford, Ill.), according to the manufacturer's instructions. Synaptosomal protein (1.0-2.5 mg) was suspended in 1 mL oxygenated incubation buffer as defined above. Test amine compound was pre-incubated with the synaptosomal preparation for 30 minutes at 37° C. in a shaking water bath (80 oscillations/minute).

[4] = target: human norepinephrine transporter (Homo sapiens, UniProt P23975); assay: Inhibition of [3H]NE transport into HEK-293 cells expressing the human transporter; settings: read-out: Inhibitor Constant (Ki), NE transport; Geometric Mean ± SEM; HEK-293 whole cells
human norepinephrine transporter, sequence (P23975 whole entry): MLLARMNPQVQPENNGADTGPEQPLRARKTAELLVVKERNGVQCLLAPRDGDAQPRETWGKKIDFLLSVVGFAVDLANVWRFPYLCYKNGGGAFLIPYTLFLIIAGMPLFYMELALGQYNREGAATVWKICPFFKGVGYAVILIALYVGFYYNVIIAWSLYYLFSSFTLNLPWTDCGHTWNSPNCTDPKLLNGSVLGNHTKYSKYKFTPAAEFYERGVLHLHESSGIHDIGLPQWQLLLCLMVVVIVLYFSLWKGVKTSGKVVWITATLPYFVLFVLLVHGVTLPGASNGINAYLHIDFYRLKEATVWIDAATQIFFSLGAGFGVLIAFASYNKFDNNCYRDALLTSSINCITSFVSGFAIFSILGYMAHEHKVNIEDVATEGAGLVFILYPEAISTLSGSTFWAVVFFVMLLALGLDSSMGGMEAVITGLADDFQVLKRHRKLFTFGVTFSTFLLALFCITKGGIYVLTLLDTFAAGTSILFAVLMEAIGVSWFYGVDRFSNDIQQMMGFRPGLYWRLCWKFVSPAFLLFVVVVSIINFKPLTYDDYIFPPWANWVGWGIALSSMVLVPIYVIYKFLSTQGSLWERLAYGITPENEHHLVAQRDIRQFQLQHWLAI

[5] = tested on: rat 5-HT, NE and DA transport, synaptosomal preparations; assay: Rat brain synaptosomal transport: rank order of potency; assay type: biochemical; settings: from Ki values; S = 5HT, N = NE, D = DA
Description: as §1

hSERT, hNET, hDAT = assay: Human transporter binding: rank order and range of potency over the three transporters; settings: for Potency (rank-order of potency of binding; S = hSERT, N = hNET, D = hDAT): from KD values
Source text: The program was modified to calculate the Hill coefficient (nH). Data are presented as geometric mean±S.E.M. of at least three independent experiments. One-component models and two-component models were compared using the root mean square error of each fit and the F test.

[6] = target: human serotonin transporter (Homo sapiens, UniProt P31645); assay: Inhibition of [3H]5-HT transport into HEK-293 cells expressing the human transporter; settings: read-out: Inhibitor Constant (Ki), 5-HT transport; Geometric Mean ± SEM; HEK-293 whole cells
human serotonin transporter, sequence (P31645 whole entry): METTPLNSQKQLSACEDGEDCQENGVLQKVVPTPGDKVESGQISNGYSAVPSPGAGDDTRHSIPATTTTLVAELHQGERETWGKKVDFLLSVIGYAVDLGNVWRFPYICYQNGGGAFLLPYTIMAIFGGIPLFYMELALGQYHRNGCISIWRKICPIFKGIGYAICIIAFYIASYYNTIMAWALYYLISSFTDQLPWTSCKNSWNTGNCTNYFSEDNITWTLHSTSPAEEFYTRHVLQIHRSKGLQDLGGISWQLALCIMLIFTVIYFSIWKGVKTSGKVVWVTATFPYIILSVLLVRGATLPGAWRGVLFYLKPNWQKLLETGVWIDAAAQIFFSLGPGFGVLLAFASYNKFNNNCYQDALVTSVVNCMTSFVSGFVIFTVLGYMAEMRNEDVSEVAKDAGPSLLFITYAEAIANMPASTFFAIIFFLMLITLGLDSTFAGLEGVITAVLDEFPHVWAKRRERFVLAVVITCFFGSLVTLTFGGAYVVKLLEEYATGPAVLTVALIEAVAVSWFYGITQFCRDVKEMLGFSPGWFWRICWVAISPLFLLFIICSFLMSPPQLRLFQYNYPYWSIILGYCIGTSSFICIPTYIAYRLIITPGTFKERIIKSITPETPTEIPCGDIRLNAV

[7] = target: T3, rat serotonin transporter, synaptosomal preparations (Rattus norvegicus, UniProt P31652); assay: Inhibition of [3H]5-HT reuptake in rat brain synaptosomes (frontal cortex); assay type: biochemical; settings: Geometric Mean ± SEM; rat brain synaptosomes; read-out: Inhibitor Constant (Ki), 5HT transport
T3 construct: from tissue; host or cells: rat frontal cortex synaptosomes (male Sprague-Dawley)
T3 sequence (P31652 whole entry): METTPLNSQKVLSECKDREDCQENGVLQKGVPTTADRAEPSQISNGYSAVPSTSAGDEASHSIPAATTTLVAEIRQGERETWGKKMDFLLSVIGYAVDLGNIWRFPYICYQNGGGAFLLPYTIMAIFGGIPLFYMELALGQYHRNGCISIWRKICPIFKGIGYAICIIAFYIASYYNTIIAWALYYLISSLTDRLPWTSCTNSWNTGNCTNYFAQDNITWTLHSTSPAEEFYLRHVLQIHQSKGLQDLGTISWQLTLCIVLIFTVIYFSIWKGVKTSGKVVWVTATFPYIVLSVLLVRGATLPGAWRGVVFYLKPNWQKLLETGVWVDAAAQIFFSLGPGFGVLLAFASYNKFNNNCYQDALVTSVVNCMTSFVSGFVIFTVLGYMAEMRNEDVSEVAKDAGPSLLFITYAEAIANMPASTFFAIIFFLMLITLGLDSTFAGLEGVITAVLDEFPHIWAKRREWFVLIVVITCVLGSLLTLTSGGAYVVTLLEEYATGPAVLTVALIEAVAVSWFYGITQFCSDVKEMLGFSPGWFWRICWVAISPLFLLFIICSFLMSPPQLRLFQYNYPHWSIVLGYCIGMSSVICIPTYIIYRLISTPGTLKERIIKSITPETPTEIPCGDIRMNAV
Description: as §1

[8] = target: T4, rat norepinephrine transport, synaptosomal preparations (Rattus norvegicus, UniProt Q63380); assay: Inhibition of [3H]NE reuptake in rat brain synaptosomes (occipital cortex); assay type: biochemical; settings: Geometric Mean ± SEM; rat brain synaptosomes; read-out: Inhibitor Constant (Ki), NE transport
T4 construct: from tissue; host or cells: rat occipital cortex synaptosomes (male Sprague-Dawley)
T4 sequence (Q63380 1-617): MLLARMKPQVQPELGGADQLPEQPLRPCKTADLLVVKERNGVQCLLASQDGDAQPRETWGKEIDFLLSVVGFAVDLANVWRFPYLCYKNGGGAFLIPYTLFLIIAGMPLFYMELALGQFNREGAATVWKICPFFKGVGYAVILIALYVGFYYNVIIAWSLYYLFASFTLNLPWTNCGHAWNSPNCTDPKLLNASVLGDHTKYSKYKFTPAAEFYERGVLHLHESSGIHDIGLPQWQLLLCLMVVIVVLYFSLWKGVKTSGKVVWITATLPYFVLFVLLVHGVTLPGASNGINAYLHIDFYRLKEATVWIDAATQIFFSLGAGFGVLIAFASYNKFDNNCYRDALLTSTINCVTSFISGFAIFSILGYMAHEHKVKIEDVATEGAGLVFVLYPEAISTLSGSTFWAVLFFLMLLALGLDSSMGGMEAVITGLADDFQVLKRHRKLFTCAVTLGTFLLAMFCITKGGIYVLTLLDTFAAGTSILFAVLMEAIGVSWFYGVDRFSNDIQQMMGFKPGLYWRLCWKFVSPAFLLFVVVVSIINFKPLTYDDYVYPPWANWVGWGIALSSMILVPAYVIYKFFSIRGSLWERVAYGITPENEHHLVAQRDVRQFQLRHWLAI
Description: as §1

[9] = target: T5, human serotonin transporter (hSERT) (Homo sapiens, UniProt P31645); assay: Radioligand binding to cloned hSERT, [3H]citalopram, HEK-293 cell membranes; settings: Geometric Mean ± SEM; HCl salts; read-out: Equilibrium Dissociation Constant (KD) for Transporter Binding, hSERT (S)
T5 construct: expressed in transfected cells; host or cells: HEK-293, stably transfected
T5 sequence (P31645 whole entry): as the sequence (P31645 whole entry) above

[10] = target: human dopamine transporter (Homo sapiens, UniProt Q01959); assay: Inhibition of [3H]DA transport into HEK-293 cells expressing the human transporter; settings: read-out: Inhibitor Constant (Ki), DA transport; Geometric Mean ± SEM; HEK-293 whole cells
human dopamine transporter, sequence (Q01959 whole entry): as the sequence (Q01959 whole entry) above

male C57BL/6J mice = assay: Tail suspension test (TST) in mice; assay type: in vivo, mouse; settings: mice, 15 mg/kg IP, FIG. 10A
Description: When mice are suspended by their tail, there is an initial period of agitation, followed by immobility. This test identifies antidepressant compounds, which decrease the duration of immobility.
Test compounds were prepared by formulating the compounds with a pharmaceutically acceptable carrier such as saline. […] Each mouse was then subjected to the tail-suspension test (TST). Each mouse (n>3) was suspended by its tail 45 cm above the table top with the use of adhesive tape placed 1 cm from the tip of its tail. Behavior was scored every 5 seconds throughout the 6-minute test as either mobile or immobile (FIG. 10A-D) or total duration of immobility during the 6-minute test (FIGS. 10E and 10H). Mice were considered immobile only when hanging passively and completely motionless. Scores for each behavior were expressed as total counts per 6-minute session.

mice = assay: Locomotor activity in motility chamber, mice; assay type: in vivo, mouse; settings: 10 minute intervals for 3 hours, FIG. 11
Male Sprague-Dawley rats = assay: Forced swim test in rats; assay type: in vivo, rat; settings: 15 mg/kg IP, FIG. 12A
Description: When rats are placed in a cylinder of water from which they cannot escape, they will remain immobile in the water for the majority of the test.
Water was changed between trials, and the procedure involved a pretest and a 5-minute test separated by 24 hours. During the pretest, rats (adapted to the experimental room for no less than one hour) were placed in the cylinder for 15 minutes. Following this initial exposure, the rats were dried with towels and transferred to a “drying cage” situated under a warming lamp. […] The following day, rats were transferred to the experimental room and acclimated for at least one hour.
The rat was considered immobile when floating motionless or making only those movements necessary to keep its head above the surface of the water. Scores for each behavior (swimming or immobility) were expressed as total counts per 5-minute session. Statistical analysis was performed using ANOVA followed by the Tukey test for post-hoc comparisons.

| Compound | Kd [1] [nM] | Potency (rank order, transport into cells expressing human transporters) [2] | Ki [3] [nM] | Ki [4] [nM] | Potency (rank order, transport into rat brain synaptosomal preparations) [5] | Potency (rank-order of potency of binding; S = hSERT, N = hNET, D = hDAT) (hSERT, hNET, hDAT) | Potency Range (difference between most potent and least potent binding) (hSERT, hNET, hDAT; ratio of KD over hSERT, hNET, hDAT) [fold] | Ki [6] [nM] | Ki [7] [nM] | Ki [8] [nM] | Kd [9] [nM] | Ki [10] [nM] | Mobility in TST (counts per 6-minute session) vs saline (male C57BL/6J mice; 30 minutes before testing) | Immobility in TST (counts per 6-minute session) vs saline (male C57BL/6J mice) | Effect on locomotor activity (mice; 15 mg/kg IP) | Immobility in forced swim test vs saline (Male Sprague-Dawley rats) | Swimming in forced swim test vs saline (Male Sprague-Dawley rats) | Effect on locomotor activity (mice; 5 mg/kg IP) |
| --- | --- | --- | --- | --- | --- | --- | --- | --- | --- | --- | --- | --- | --- | --- | --- | --- | --- | --- |
| CNCC(c1ccc2ccccc2c1)C(OC)c1ccccc1 (racemic) [MCJ001-OMe-(±)-SR, (2R,3S/2S,3R)-3-methoxy-N-methyl-2-(naphthalen-2-yl)-3-phenylpropan-1-amine] | 600 ± 100 | N > S > D | 1030 ± 30 | 20 ± 1 | S > N > D | N = D > S | 1.2 | 60 ± 7 | 90 ± 36 | 210 ± 30 | 710 ± 50 | 2400 | – | – | – | – | – | – |
| CN(C)CCCN1c2ccccc2CCc2ccccc21 [Imipramine, reference compound] | – | – | – | – | N > S > D | S > N > D | – | – | – | – | – | – | significantly (P<0.02) increased mobility | significantly (P<0.02) reduced immobility | Only d-amphetamine caused a significant effect on locomotor activity | statistically (P<0.04) less immobility | statistically (P<0.04) more swimming behavior | – |
| C[C@H](N)Cc1ccccc1 [d-amphetamine, reference compound] | – | – | – | – | – | – | – | – | – | – | – | – | – | – | – | – | – | caused a significant effect on locomotor activity |
